Source: the supplement of paper PMC10307832

What was measured:
Test in all cases: relative viability (nuclei count vs DMSO), 5 days (fraction); higher = more cells survive
[1] = compound: C1COCCN1C2=NC(=NC3=C2OC4=C3C=CC=N4)C5=CC(=CC=C5)NC(=O)C6=CN=C(C=C6)N + NC(=O)Nc1cc(-c2cccc(F)c2)sc1C(=O)N[C@H]1CCCNC1 [AZD7762] (partner 0.2 µM)
Outline: (§1)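 Lung cancer cell lines were seeded in 1536-well plates and dosed by pin tool the next day, with either a single drug or a fixed anchor-drug dose combined with five library-drug doses (not always all listed) spaced in √10 steps. Five days later, one step fixed the cells and stained their nuclei (final 0.05% Triton X-100, 1% formaldehyde, 1 ug/ml Hoechst), and nuclei were counted on 4× images. Relative viability is the nuclei count in treated wells divided by the count in vehicle wells, and each value is the median of duplicate plates.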

[2] = compound: C1COCCN1C2=NC(=NC3=C2OC4=C3C=CC=N4)C5=CC(=CC=C5)NC(=O)C6=CN=C(C=C6)N + O=C(CCCCCCC(=O)Nc1ccccc1)NO [Vorinostat] (partner 1 µM)
Outline: as §1

[3] = compound: C1COCCN1C2=NC(=NC3=C2OC4=C3C=CC=N4)C5=CC(=CC=C5)NC(=O)C6=CN=C(C=C6)N + O=C(c1cc(Cc2n[nH]c(=O)c3ccccc23)ccc1F)N1CCN(C(=O)C2CC2)CC1 [Olaparib] (partner 8 µM)
Outline: as §1

SGI-1776 + Vorinostat = compound: CN1CCC(CNc2ccc3ncc(-c4cccc(OC(F)(F)F)c4)n3n2)CC1 [SGI-1776] + O=C(CCCCCCC(=O)Nc1ccccc1)NO [Vorinostat] (partner 1 µM)
Outline: as §1

Question: Which results are given for NCI-H3122?
Answer: relative viability ([1]; first compound 0.02 µM): 0.973; relative viability ([1]; first compound 0.06325 µM): 1.01; relative viability ([1]; first compound 0.2 µM): 0.99; relative viability ([1]; first compound 0.6325 µM): 0.973; relative viability ([1]; first compound 2 µM): 0.667; relative viability ([2]; first compound 0.02 µM): 0.924; relative viability ([2]; first compound 0.06325 µM): 1.09; relative viability ([2]; first compound 0.2 µM): 0.946; relative viability ([2]; first compound 0.6325 µM): 1.06; relative viability ([2]; first compound 2 µM): 0.639; relative viability ([3]; first compound 0.02 µM): 0.665; relative viability ([3]; first compound 0.06325 µM): 0.614; relative viability ([3]; first compound 0.2 µM): 0.625; relative viability ([3]; first compound 0.6325 µM): 0.935; relative viability ([3]; first compound 2 µM): 0.483; relative viability (SGI-1776 + Vorinostat; first compound 0.08 µM): 1.15; relative viability (SGI-1776 + Vorinostat; first compound 0.8 µM): 0.917; relative viability (SGI-1776 + Vorinostat; first compound 2.53 µM): 1.07; relative viability (SGI-1776 + Vorinostat; first compound 8 µM): 1.07

Question: How did the relative viability ([1]; first compound 0.02 µM) turn out when NCI-H2126 was run?
Answer: 0.989

Question: What about the relative viability ([1]; first compound 0.06325 µM) of the same cell line?
Answer: 1.03

Question: And the relative viability ([1]; first compound 0.2 µM)?
Answer: 1.03

Question: And the relative viability ([1]; first compound 0.6325 µM)?
Answer: 0.989

Question: And the relative viability ([1]; first compound 2 µM)?
Answer: 0.736

Question: What about the relative viability ([2]; first compound 0.02 µM) of the same cell line?
Answer: 0.707

Question: And the relative viability ([2]; first compound 0.06325 µM)?
Answer: 0.941

Question: What about the relative viability ([2]; first compound 0.2 µM) of the same cell line?
Answer: 0.758

Question: And the relative viability ([2]; first compound 0.6325 µM)?
Answer: 0.786

Question: What about the relative viability ([2]; first compound 2 µM) of the same cell line?
Answer: 0.582

Question: And the relative viability ([3]; first compound 0.02 µM)?
Answer: 0.889

Question: And the relative viability ([3]; first compound 0.06325 µM)?
Answer: 0.962

Question: What about the relative viability ([3]; first compound 0.2 µM) of the same cell line?
Answer: 0.876

Question: And the relative viability ([3]; first compound 0.6325 µM)?
Answer: 0.865

Question: And the relative viability ([3]; first compound 2 µM)?
Answer: 0.532

Question: What about the relative viability (SGI-1776 + Vorinostat; first compound 0.08 µM) of the same cell line?
Answer: 0.709

Question: And the relative viability (SGI-1776 + Vorinostat; first compound 0.8 µM)?
Answer: 0.801

Question: What about the relative viability (SGI-1776 + Vorinostat; first compound 2.53 µM) of the same cell line?
Answer: 0.77

Question: What about the relative viability (SGI-1776 + Vorinostat; first compound 8 µM) of the same cell line?
Answer: 0.698

Question: How did the relative viability ([1]; first compound 0.02 µM) turn out when LU99A was run?
Answer: 0.433

Question: What about the relative viability ([1]; first compound 0.06325 µM) of the same cell line?
Answer: 0.416

Question: And the relative viability ([1]; first compound 0.2 µM)?
Answer: 0.233

Question: What about the relative viability ([1]; first compound 0.6325 µM) of the same cell line?
Answer: 0.319

Question: And the relative viability ([1]; first compound 2 µM)?
Answer: 0.295

Question: What about the relative viability ([2]; first compound 0.02 µM) of the same cell line?
Answer: 0.435

Question: What about the relative viability ([2]; first compound 0.06325 µM) of the same cell line?
Answer: 0.546

Question: What about the relative viability ([2]; first compound 0.2 µM) of the same cell line?
Answer: 0.365

Question: What about the relative viability ([2]; first compound 0.6325 µM) of the same cell line?
Answer: 0.418

Question: What about the relative viability ([2]; first compound 2 µM) of the same cell line?
Answer: 0.309

Question: What about the relative viability ([3]; first compound 0.02 µM) of the same cell line?
Answer: 0.264

Question: And the relative viability ([3]; first compound 0.06325 µM)?
Answer: 0.27

Question: What about the relative viability ([3]; first compound 0.2 µM) of the same cell line?
Answer: 0.226

Question: What about the relative viability ([3]; first compound 0.6325 µM) of the same cell line?
Answer: 0.262

Question: What about the relative viability ([3]; first compound 2 µM) of the same cell line?
Answer: 0.222

Question: What about the relative viability (SGI-1776 + Vorinostat; first compound 0.08 µM) of the same cell line?
Answer: 0.463

Question: And the relative viability (SGI-1776 + Vorinostat; first compound 0.8 µM)?
Answer: 0.531

Question: And the relative viability (SGI-1776 + Vorinostat; first compound 2.53 µM)?
Answer: 0.56

Question: And the relative viability (SGI-1776 + Vorinostat; first compound 8 µM)?
Answer: 0.443

Question: Which results are given for NCI-H1666?
Answer: relative viability ([1]; first compound 0.02 µM): 0.91; relative viability ([1]; first compound 0.06325 µM): 0.827; relative viability ([1]; first compound 0.2 µM): 0.861; relative viability ([1]; first compound 0.6325 µM): 0.757; relative viability ([1]; first compound 2 µM): 0.811; relative viability ([2]; first compound 0.02 µM): 1.07; relative viability ([2]; first compound 0.06325 µM): 1.09; relative viability ([2]; first compound 0.2 µM): 0.966; relative viability ([2]; first compound 0.6325 µM): 0.736; relative viability ([2]; first compound 2 µM): 0.865; relative viability ([3]; first compound 0.02 µM): 0.757; relative viability ([3]; first compound 0.06325 µM): 0.74; relative viability ([3]; first compound 0.2 µM): 0.729; relative viability ([3]; first compound 0.6325 µM): 0.804; relative viability ([3]; first compound 2 µM): 0.755; relative viability (SGI-1776 + Vorinostat; first compound 0.08 µM): 0.999; relative viability (SGI-1776 + Vorinostat; first compound 0.8 µM): 0.971; relative viability (SGI-1776 + Vorinostat; first compound 2.53 µM): 0.957; relative viability (SGI-1776 + Vorinostat; first compound 8 µM): 1.01

Question: For NCI-H460, which relative viability ([1]; first compound 0.02 µM) is on record?
Answer: 0.609

Question: And the relative viability ([1]; first compound 0.06325 µM)?
Answer: 0.784

Question: What about the relative viability ([1]; first compound 0.2 µM) of the same cell line?
Answer: 0.587

Question: What about the relative viability ([1]; first compound 0.6325 µM) of the same cell line?
Answer: 0.653

Question: And the relative viability ([1]; first compound 2 µM)?
Answer: 0.359

Question: What about the relative viability ([2]; first compound 0.02 µM) of the same cell line?
Answer: 1.51

Question: And the relative viability ([2]; first compound 0.06325 µM)?
Answer: 0.788

Question: What about the relative viability ([2]; first compound 0.2 µM) of the same cell line?
Answer: 0.907

Question: What about the relative viability ([2]; first compound 0.6325 µM) of the same cell line?
Answer: 0.559

Question: And the relative viability ([2]; first compound 2 µM)?
Answer: 0.221

Question: And the relative viability ([3]; first compound 0.02 µM)?
Answer: 0.578

Question: What about the relative viability ([3]; first compound 0.06325 µM) of the same cell line?
Answer: 0.537

Question: And the relative viability ([3]; first compound 0.2 µM)?
Answer: 0.376

Question: What about the relative viability ([3]; first compound 0.6325 µM) of the same cell line?
Answer: 0.413

Question: And the relative viability ([3]; first compound 2 µM)?
Answer: 0.182

Question: And the relative viability (SGI-1776 + Vorinostat; first compound 0.08 µM)?
Answer: 0.887

Question: What about the relative viability (SGI-1776 + Vorinostat; first compound 0.8 µM) of the same cell line?
Answer: 0.688

Question: And the relative viability (SGI-1776 + Vorinostat; first compound 2.53 µM)?
Answer: 0.717

Question: And the relative viability (SGI-1776 + Vorinostat; first compound 8 µM)?
Answer: 0.715
